Earlier results in patent US20080319015A1, “Insect Repellent Mixture” (priority 2005, published 2008).

Test system: biting mosquitoes
Conditions: proportion of about 10% by weight in a formulation

CCCCN(CCC(=O)OCC)C(C)=O [ethyl butylacetylaminopropionate, ethyl 3-(N-n-butyl-N-acetylamino)propionate]
protection times: up to 4 hours
